# Assay results: patent publication US7186817B2, “Polynucleotides encoding phytase polypeptides” (Forskningscenter Riso, priority 2000, dated 2007)
# B1: wheat bran phytase: phytase purified from wheat bran according to the invention (SEQ ID NO: 7) (protein, listed as Triticum aestivum)
# chain: MWMWRGSLPLLLLAAAVAAAAEPASTLEGPSRPVTVPLREDRGHAVDLPDTDPRVQRRVTGWAPEQIAVALSAAPTSAWVSWITGDFQMGGAVKPLDPGTVGSVVRYGLAADSLVREATGDALVYSQLYPFEGLQNYTSGIIHHVRLQGLEPGTKYYYQCGDPAIPGAMSAVHAFRTMPAVGPRSYPGRIAVVGDLGLTYNTTSTVDHMASNRPDLVLLVGDVCYANMYLTNGTGADCYSCAFGKSTPIHETYQPRWDYWGRYMEAVTSGTPMMVVEGNHEIEEQIGNKTFAAYRSRFAFPSTESGSFSPFYYSFDAGGIHFLMLGAYADYGRSGEQYRWLEKDLAKVDRSVTPWLVAGWHAPWYTTYKAHYREVECMRVAMEELLYSHGLDIAFTGHVHAYERSNRVFNYTLDPCGAVHISVGDGGNREKMATTHADEPGHCPDPRPKPNAFIGGFCAFNFTSGPAAGRFCWDRQPDYSAYRESSFGHGILEVKNETHALWRWHRNQDMYGSAGDEIYIVREPHRCLHKHNWTRPAHGP
# What was measured:
# soybean phytase = details: cited from earlier work
# [1] = test system: earlier described phytase activity (wheat bran); details: activity with optimum at about pH 5.0; cited from earlier work
# [2] = test system: phytase activity of fraction F1; details: fraction F1, pH optimum 5.6; cited from earlier work
# [3] = Determination of the isoelectric point (non-denaturing isoelectric focusing); type: physicochemical; details: visualised with 1-naphtylphosphate and Farst Garnet GBC
# Description: FIG. 5: depicts the isoelectric focusing of the purified wheat bran phytase. A double band at pH 7.4 is visible after incubation with 1-naphtylphosphate and Farst Garnet GBC.
# Proteins were focused at 11° C. for a total of 2.5 kVh in non-denaturing isoelectric-focusing polyacrylamid gels (IEF)(Ampholine PAGplate pH 3.5–9.5 (Pharmacia)). An IEF calibration kit (Pharmacia) was applied to determine the pH-gradient across the gel. The IEF markers were visualised by Coomassie staining according to the recommendations of the manufacturer. The presence of acid phosphatase was identified by incubation of the gel at 37° C. in 100 ml 0.05M citrate, pH 4.5 with 50 mg Na-1-naphtyl phosphate (Merck 6815), 25 mg Farst Garnet GBC (Sigma F-8761) and 0.5 ml 10% MgCl.
molecule,measurement,setting,value
phosphate,enzyme active,soybean phytase; 0.5 μM phosphate,67%
same,Ki,"soybean phytase; read-out: apparent Ki, product inhibition by phosphate",18 µM
same,inhibition of activity by phosphate,[1],not inhibited at all
same,inhibition of activity by phosphate,[2],inhibited
B1,"isoelectric focusing, double band at pH",[3],7.4 pH
